Drawing on ChEMBL document CHEMBL1153047, “Discovery of N-[(1-aryl-1H-indazol-5-yl)methyl]amides derivatives as smoothened antagonists for inhibition of the hedgehog pathway” (Bioorg Med Chem Lett, 2009), this text covers IC50 for 1 molecule.

In this test the target is Protein smoothened (Homo sapiens, UniProt Q99835). In words: Inhibition of BODIPY-cyclopamine to Smo in human HEK293 Flag-Smo cells in presence of 2% FCS. The format is cell-based.

Where only a bound is given, the exact number is not on record here.

Chain of Protein smoothened (Q99835 whole entry): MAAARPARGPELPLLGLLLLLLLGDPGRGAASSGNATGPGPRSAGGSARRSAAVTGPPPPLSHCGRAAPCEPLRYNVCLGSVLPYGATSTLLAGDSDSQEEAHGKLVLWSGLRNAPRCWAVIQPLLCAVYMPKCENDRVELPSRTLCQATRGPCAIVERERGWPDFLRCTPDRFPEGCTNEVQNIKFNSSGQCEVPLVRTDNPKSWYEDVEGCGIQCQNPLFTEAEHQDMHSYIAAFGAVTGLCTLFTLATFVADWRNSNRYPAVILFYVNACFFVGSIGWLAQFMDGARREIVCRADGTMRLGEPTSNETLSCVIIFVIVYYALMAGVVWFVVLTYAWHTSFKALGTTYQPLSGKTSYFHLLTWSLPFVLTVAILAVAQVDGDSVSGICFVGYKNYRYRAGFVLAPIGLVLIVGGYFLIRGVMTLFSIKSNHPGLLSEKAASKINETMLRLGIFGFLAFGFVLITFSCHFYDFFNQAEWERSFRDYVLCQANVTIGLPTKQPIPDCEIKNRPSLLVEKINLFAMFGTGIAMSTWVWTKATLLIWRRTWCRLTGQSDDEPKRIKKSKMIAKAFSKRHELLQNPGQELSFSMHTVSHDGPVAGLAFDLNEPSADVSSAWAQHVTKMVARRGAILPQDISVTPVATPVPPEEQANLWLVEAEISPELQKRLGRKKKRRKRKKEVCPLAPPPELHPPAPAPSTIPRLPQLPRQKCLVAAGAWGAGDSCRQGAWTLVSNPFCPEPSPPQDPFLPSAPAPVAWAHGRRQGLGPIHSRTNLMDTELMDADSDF

The term IC50 denotes the concentration at which inhibition is half-maximal. For the molecule `O=C(Cc1ccccc1)NCc1ccc2c(cnn2-c2ccc(F)cc2)c1`, the concentration for half-maximal inhibition (IC50) was more than 10 µM.
